Assay results: patent publication US20160123957A1, “Visualization of P-TEFb by Fluorescence Complementation” (The Regents of the University of California, priority 2014, published 2016)

Key:
[1] = test system: P-TEFb; test: BiFC assay, YC.P-TEFb coexpressed with YN.CTD in HEK293 cells; assay type: cell-based; conditions: for number of YFP-positive cells: versus normal culture conditions
Description: Sequences encoding amino acids 1-154 (YN) and 155-238 (YC) of YFP were amplified and cloned in mammalian expression plasmids. The YN.CTD chimera was constructed by inserting DNA fragments from a 52X heptapeptide (52 X SEQ ID NO: 4 (SEQ ID NO: 7)) CTD coding plasmid with a linker sequence encoding a nuclear localization signal, SEQ ID NO: 5. The YC.PTEFb chimera was constructed by inserting DNA fragments corresponding to P-TEFb into the YC plasmid, with Cdk9 and CycT1 sequences genetically fused to express as a single chimeric polypeptide, that can form a functional P-TEFb molecule. A polynucleotide coding for the linker of SEQ ID NO: 6 was optionally utilized in the constructs, between P-TEFb or CTD sequences and their associated fluorophores fragments. All proteins contained an anti-c-Myc antibody epitope tag at the N termini, and their expression in cells was confirmed by Western blotting using an anti-c-Myc antibody.
(§1) HeLa or HEK293 cells growing in log phase were transfected with plasmid DNA encoding YN.CTD and YC.P-TEFb fusion proteins by use of a lipofection agent. Incorporation of YC.P-TEFb into the 7SK snRNP was confirmed by immunoprecipitation and Western blot analysis with antibodies to the components of the 7SK snRNP.
The BiFC assay was used to detect interactions between released free P-TEFb and its natural substrate, RNA polymerase II CTD. When YC.P-TEFb was coexpressed with YN.CTD in HEK293 cells under normal culture conditions, very few weakly YFP-positive cells were detected. […] Because the emission peak of YFP (527 nm) is similar to that of GFP (509 nm), the BiFC-positive cells appeared green. […] YC.P-TEFb was employed to monitor P-TEFb activation by BiFC in cells.
A time-dependent increase in BiFC signals was monitored by time-lapse fluorescence microscopic analysis. HEK293 cells expressing YC.P-TEFb and YN.CTD were treated with 5 micromolar SAHA, and fluorescent images were taken every 3 min. BiFC signals were detected by 30 min after the addition of SAHA and reached a peak at a time point between 75 and 90 min. At later times, more intense and punctate nuclear staining reflected the accumulation of active P-TEFb in nuclear speckles. This finding is consistent with previous observations of P-TEFb release by SAHA with a consideration of the time required for maturation of the fluorophore.

[2] = test system: 7SK snRNP; test: Immunoprecipitation and Western blot of 7SK snRNP fractions in cells expressing YC.P-TEFb; assay type: cell-based; conditions: HeLa or HEK293 cells, SAHA treatment
Description: as §1

SMILES: CN1CCc2c(c3ccccc3n2Cc2ccc(C(=O)NO)cc2)C1 [tubastatin A]
- number of YFP-positive cells [1]: did not increase

SMILES: O=C(CCCCCCC(=O)Nc1ccccc1)NO [SAHA]
- amounts of YC.P-TEFb and endogenous CycT1 proteins in 7SK snRNP fractions [2]: reduced
- levels of free P-TEFb [2]: increased
- time at which BiFC signals were detected after addition ([1]; 5 micromolar, time-lapse fluorescence microscopy, images every 3 min): ≤ 30 min
- number of YFP-positive cells [1]: increased significantly

SMILES: CC(=O)NCCCCCCNC(C)=O [HMBA]
- number of YFP-positive cells [1]: increased significantly

SMILES: Nc1ncn([C@@H]2O[C@H](CO)[C@@H](O)[C@H]2O)c(=O)n1 [AzaC]
- time-dependent increase in BiFC signals (P-TEFb release) ([1]; time-lapse fluorescence microscopy): released P-TEFb
